Measured values: ChEMBL document CHEMBL1136586, “Structure-activity relationship of linear peptide Bu-His6-DPhe7-Arg8-Trp9-Gly10-NH2 at the human melanocortin-1 and -4 receptors: DPhe7 and Trp9 substitution” (Bioorg Med Chem Lett, 2003)
Square brackets hold non-standard residues; d marks the D form. Peptide text beside a SMILES is read from it. * marks the point of attachment. Phe(3-CF3) = N[C@@H](Cc1cccc(C(F)(F)F)c1)C(=O)O; Phe(4-Br) = N[C@@H](Cc1ccc(Br)cc1)C(=O)O; Phe(4-Cl) = N[C@@H](Cc1ccc(Cl)cc1)C(=O)O; Phe(4-Me) = Cc1ccc(C[C@H](N)C(=O)O)cc1; Butyryl = CCCC(=O)*

Legend:
Melanocortin receptor 4 [1] = target: T1, Melanocortin receptor 4 (Homo sapiens, UniProt P32245); experiment: Inhibitory concentration of compound was determined against hMC4R through displacement of NDP-MSH radioligand using HEK293 cells; type: cell-based
T1 sequence (P32245 whole entry): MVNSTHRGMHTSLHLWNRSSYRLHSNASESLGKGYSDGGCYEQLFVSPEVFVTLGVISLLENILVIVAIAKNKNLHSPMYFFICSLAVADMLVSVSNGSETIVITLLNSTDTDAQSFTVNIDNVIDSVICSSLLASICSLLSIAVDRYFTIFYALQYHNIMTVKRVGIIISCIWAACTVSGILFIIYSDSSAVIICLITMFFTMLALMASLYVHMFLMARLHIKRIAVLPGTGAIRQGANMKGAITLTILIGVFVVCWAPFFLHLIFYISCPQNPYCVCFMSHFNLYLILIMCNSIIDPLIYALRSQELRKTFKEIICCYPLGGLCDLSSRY

[2] = target: T2, Melanocyte-stimulating hormone receptor (Homo sapiens, UniProt Q01726); experiment: Effective concentration against hMC1R using HEK293 cells was determined by measuring the cAMP accumulation; type: functional, cell-based
T2 sequence (Q01726 whole entry): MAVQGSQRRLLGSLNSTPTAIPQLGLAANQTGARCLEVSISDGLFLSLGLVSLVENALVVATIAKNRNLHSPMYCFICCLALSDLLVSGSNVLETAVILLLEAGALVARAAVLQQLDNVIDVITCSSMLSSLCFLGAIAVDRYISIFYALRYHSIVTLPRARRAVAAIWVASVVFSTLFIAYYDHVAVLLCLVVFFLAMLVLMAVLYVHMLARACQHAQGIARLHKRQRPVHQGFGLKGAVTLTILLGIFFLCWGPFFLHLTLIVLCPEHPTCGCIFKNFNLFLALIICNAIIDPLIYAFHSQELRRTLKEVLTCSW

[3] = target: T2, Melanocyte-stimulating hormone receptor; experiment: Inhibitory concentration of compound was determined against hMC1R through displacement of NDP-MSH radioligand using HEK293 cells; type: cell-based
Melanocortin receptor 4 [4] = target: T1, Melanocortin receptor 4; experiment: (§1) Effective concentration against hMC4R using HEK293 cells was determined by measuring cAMP accumulation; type: functional, cell-based
Melanocortin receptor 4 [5] = target: T1, Melanocortin receptor 4; experiment: (§2) Effective concentration against hMC4R using HEK293 cells was determined by measuring cAMP accumulation at 50 uM; type: functional, cell-based
Melanocortin receptor 4 [6] = target: T1, Melanocortin receptor 4; experiment: as §1; type: functional, cell-based; remark: listed apart in the source
Melanocortin receptor 4 [7] = target: T1, Melanocortin receptor 4; experiment: as §2; type: functional, cell-based; remark: listed apart in the source

Row | SMILES | IC50 (Melanocortin receptor 4 [1]) | EC50 [2] | IC50 [3] | EC50 (Melanocortin receptor 4 [4]) | inhibition (Melanocortin receptor 4 [5]) | ED50 (Melanocortin receptor 4 [6]) | EC50 (Melanocortin receptor 4 [7])
1 | CCCC(=O)N[C@@H](Cc1cnc[nH]1)C(=O)N[C@@H](Cc1ccc(Cl)cc1)C(=O)N[C@@H](CCCNC(=N)N)C(=O)N[C@@H](Cc1c[nH]c2ccccc12)C(=O)NCC(N)=O (Butyryl-H[Phe(4-Cl)]RWG-NH2) | 80 nM | 20 nM | 300 nM | 20 nM | – | – | –
2 | CCCC(=O)N[C@@H](Cc1c[nH]cn1)C(=O)N[C@H](Cc1ccc2ccccc2c1)C(=O)N[C@@H](CCCN=C(N)N)C(=O)N[C@@H](Cc1c[nH]c2ccccc12)C(=O)NCC(N)=O | 30 nM | 48 nM | 5000 nM | – | 0% | – | –
3 | CCCC(=O)N[C@@H](Cc1c[nH]cn1)C(=O)N[C@@H](Cc1ccc(OC)cc1)C(=O)N[C@@H](CCCN=C(N)N)C(=O)N[C@@H](Cc1c[nH]c2ccccc12)C(=O)NCC(N)=O (Butyryl-HY(Me)RWG-NH2) | 120 nM | 0.4 nM | 70 nM | 60 nM | – | – | –
4 | CCCC(=O)N[C@@H](Cc1c[nH]cn1)C(=O)NC(Cc1ccccc1)C(=O)N[C@@H](CCCN=C(N)N)C(=O)N[C@@H](Cc1ccc2ccccc2c1)C(=O)NCC(N)=O (single isomer, unassigned) | 50 nM | 14 nM | 600 nM | 25 nM | – | – | –
5 | CCCC(=O)N[C@@H](Cc1cnc[nH]1)C(=O)N[C@@H](Cc1ccc(C)cc1)C(=O)N[C@@H](CCCNC(=N)N)C(=O)N[C@@H](Cc1c[nH]c2ccccc12)C(=O)NCC(N)=O (Butyryl-H[Phe(4-Me)]RWG-NH2) | – | 55 nM | – | 77 nM | – | – | –
6 | CCCC(=O)N[C@@H](Cc1c[nH]cn1)C(=O)N[C@H](Cc1cccc2ccccc12)C(=O)N[C@@H](CCCN=C(N)N)C(=O)N[C@@H](Cc1c[nH]c2ccccc12)C(=O)NCC(N)=O | 350 nM | 30 nM | 4000 nM | 65 nM | – | – | –
7 | CCCC(=O)N[C@@H](Cc1cnc[nH]1)C(=O)N[C@@H](Cc1ccc(O)cc1)C(=O)N[C@@H](CCCNC(=N)N)C(=O)N[C@@H](Cc1c[nH]c2ccccc12)C(=O)NCC(N)=O (Butyryl-HYRWG-NH2) | – | 180 nM | – | 1150 nM | – | – | –
8 | CCCC(=O)N[C@@H](Cc1c[nH]cn1)C(=O)NC(Cc1ccccc1)C(=O)N[C@@H](CCCN=C(N)N)C(=O)N[C@@H](Cc1cccc2ccccc12)C(=O)NCC(N)=O (single isomer, unassigned) | 600 nM | 150 nM | 1200 nM | 140 nM | – | – | –
9 | CCCC(=O)N[C@@H](Cc1c[nH]cn1)C(=O)NC(Cc1ccccc1)C(=O)N[C@@H](CCCN=C(N)N)C(=O)N[C@@H](Cc1ccc(Cl)c(Cl)c1)C(=O)NCC(N)=O (single isomer, unassigned) | – | 1 nM | – | – | – | 194 nM | –
10 | CCCC(=O)N[C@@H](Cc1cnc[nH]1)C(=O)N[C@H](Cc1ccccc1)C(=O)N[C@@H](CCCNC(=N)N)C(=O)N[C@@H](Cc1csc2ccccc12)C(=O)NCC(N)=O | 1000 nM | 274 nM | 2880 nM | 100 nM | – | – | –
11 | CCCC(=O)N[C@@H](Cc1cnc[nH]1)C(=O)N[C@@H](Cc1cccc(C(F)(F)F)c1)C(=O)N[C@@H](CCCNC(=N)N)C(=O)N[C@@H](Cc1c[nH]c2ccccc12)C(=O)NCC(N)=O (Butyryl-H[Phe(3-CF3)]RWG-NH2) | 300 nM | 611 nM | 9600 nM | 45 nM | – | – | –
12 | CCCC(=O)N[C@@H](Cc1c[nH]cn1)C(=O)NC(Cc1ccccc1)C(=O)N[C@@H](CCCN=C(N)N)C(=O)NC(Cc1c[nH]c2ccccc12)C(=O)NCC(N)=O (single isomer, unassigned) | – | 110 nM | – | – | – | – | 110 nM
13 | CCCC(=O)N[C@@H](Cc1c[nH]cn1)C(=O)NC(Cc1ccc(OCC)cc1)C(=O)N[C@@H](CCCN=C(N)N)C(=O)N[C@@H](Cc1c[nH]c2ccccc12)C(=O)NCC(N)=O (single isomer, unassigned) | 100 nM | 0.1 nM | 16 nM | 16 nM | – | – | –
14 | CCCC(=O)N[C@@H](Cc1c[nH]cn1)C(=O)N[C@@H](Cc1ccc(Br)cc1)C(=O)N[C@@H](CCCN=C(N)N)C(=O)N[C@@H](Cc1c[nH]c2ccccc12)C(=O)NCC(N)=O (Butyryl-H[Phe(4-Br)]RWG-NH2) | 22 nM | 54 nM | 300 nM | 13 nM | – | – | –
15 | CCCC(=O)N[C@@H](Cc1cnc[nH]1)C(=O)N[C@@H](Cc1ccccc1)C(=O)N[C@@H](CCCNC(=N)N)C(=O)N[C@@H](Cc1c[nH]c2ccccc12)C(=O)NCC(N)=O | 150 nM | 10 nM | 575 nM | 20 nM | – | – | –
16 | CCCC(=O)N[C@@H](Cc1c[nH]cn1)C(=O)N[C@H](Cc1ccc(Cl)c(Cl)c1)C(=O)N[C@@H](CCCN=C(N)N)C(=O)N[C@@H](Cc1c[nH]c2ccccc12)C(=O)NCC(N)=O | 4 nM | 10 nM | 250 nM | – | 0% | – | –
17 | CCCC(=O)N[C@@H](Cc1c[nH]cn1)C(=O)NC(Cc1cccs1)C(=O)N[C@@H](CCCN=C(N)N)C(=O)N[C@@H](Cc1c[nH]c2ccccc12)C(=O)NCC(N)=O (single isomer, unassigned) | – | 4 nM | – | – | – | – | 8 nM
